Test results from US11649215B2, “Compositions and methods for the treatment of oral infectious diseases” (Cellix Bio Private Limited, priority 2016, dated 2023).
Values after ≈ are worked out from the molar mass of the structure shown. “Also recorded” adds a separate entry of the source. Like-named read-outs stand apart in the source and are kept apart here.

What was measured:
[1] = tested on: various oral pathogenic microorganisms; conditions: cited from earlier work; for antimicrobial activity among the long-chain fatty acids: comparison among long-chain fatty acids
[2] = tested on: Candida Species; assay: MIC against the Candida Species; type: cell-based; conditions: conversion of 0.45 μmoles/ml, read-out: MIC (corresponding mass concentration)
From the text: Linoleic acid is GRAS listed long chain fatty acid. […] The minimum inhibitory concentration for linoleic acid against Porphyromonas gingivalis was 9 to 78 mcg/ml.

Structure (SMILES)	antimicrobial activity among the long-chain fatty acids [1]	antimicrobial activity against oral microorganisms ([1]; in vitro, incl. S. mutans, A. actinomycetemcomitans, C. albicans, P. gingivalis, F. nucleatum, S. gordonii)	bactericidal concentration ([1]; n-6 fatty acids GLA) [µg/mL]	MIC [2] [µg/mL]	bactericidal concentration [1] [µg/mL]
CCCCC/C=C\C/C=C\C/C=C\CCCCC(=O)O [GLA, gamma linoleic acid]	greatest antimicrobial activity	significant anti-microbial activity; also recorded: antimicrobial activities	25		
CCCCC/C=C\C/C=C\CCCCCCCC(=O)O [Linoleic acid]	greatest antimicrobial activity			0.13 (≈ 0.464 µM)	25
CCCCC/C=C\C/C=C\C/C=C\C/C=C\CCCC(=O)O [arachidonic acid]	greatest antimicrobial activity				
CCCCCCCCCCCCCCCC(=O)O [palmitic acid]	greatest antimicrobial activity				
CCCCCC/C=C\CCCCCCCC(=O)O [palmitoleic acid]	greatest antimicrobial activity				
